Laboratory results taken from patent publication US20250195521A1 (Revolution Medicines, Inc., priority 2020, published 2025).

Tests used:
Type in all cases: biochemical
KRAS G12C = KRAS G12C (Homo sapiens (Human), UniProt P01116+P62937, G12C); assay: Ras-Raf disruption/FRET/MOA assay, KRAS G12C; conditions: read-out: KRAS G12C FRET data IC50
Description: (§1) Disruption of B-Raf Ras-Binding Domain (BRAF^RBD) Interaction with K-Ras by Compounds of the Invention (Also Called a FRET Assay or an MOA Assay)
(§2) Note—The following protocol describes a procedure for monitoring disruption of K-Ras G12C (GMP-PNP) binding to BRAF^RBD by a compound of the invention. This protocol may also be executed substituting other Ras proteins or nucleotides, such as K-Ras G12D and K-Ras G13D.
(§3) The purpose of this biochemical assay was to measure the ability of test compounds to facilitate ternary complex formation between a nucleotide-loaded K-Ras isoform and Cyclophilin A; the resulting ternary complex disrupts binding to a BRAF^RBD construct, inhibiting K-Ras signaling through a RAF effector. Data is reported as IC50 values.
(§4) In assay buffer containing 25 mM HEPES pH 7.3, 0.002% Tween20, 0.1% BSA, 100 mM NaCl and 5 mM MgCl2, tagless Cyclophilin A, His6-K-Ras-GMPPNP, and GST-BRAF^RBD were combined in a 384-well assay plate at final concentrations of 25 μM, 12.5 nM, and 50 nM, respectively. Compound was present in plate wells as a 10-point 3-fold dilution series starting at a final concentration of 30 μM. After incubation at 25° C. for 3 hours, a mixture of anti-His Eu—W1024 and anti-GST allophycocyanin was then added to assay sample wells at final concentrations of 10 nM and 50 nM, respectively, and the reaction incubated for an additional 1.5 hours. […] Compounds that facilitate disruption of a K-Ras: RAF complex were identified as those eliciting a decrease in the TR-FRET ratio relative to DMSO control wells.

KRAS WT = KRAS WT (Homo sapiens (Human), UniProt P01116+P62937); assay: Ras-Raf disruption/FRET/MOA assay, KRAS WT; conditions: read-out: KRAS WT FRET IC50
Description: as §1, §2, §3, §4

KRAS G13D = KRAS G13D (Homo sapiens (Human), UniProt P01116+P62937, G13D); assay: Ras-Raf disruption/FRET/MOA assay, KRAS G13D; conditions: read-out: KRAS G13D FRET IC50
Description: as §1, §2, §3, §4

NRAS G12C = NRAS G12C (Homo sapiens (Human), UniProt P01111+P62937, G12C); assay: Ras-Raf disruption/FRET/MOA assay, NRAS G12C; conditions: read-out: NRAS G12C FRET data IC50
Description: as §1, §2, §3, §4

KRAS G12D = KRAS G12D (Homo sapiens (Human), UniProt P01116+P62937, G12D); assay: Ras-Raf disruption/FRET/MOA assay, KRAS G12D; conditions: read-out: KRAS G12D FRET IC50
Description: as §1, §2, §3, §4

KRAS G13C = KRAS G13C (Homo sapiens (Human), UniProt P01116+P62937, G13C); assay: Ras-Raf disruption/FRET/MOA assay, KRAS G13C; conditions: read-out: KRAS G13C FRET IC50
Description: as §1, §2, §3, §4

KRAS G12V = KRAS G12V (Homo sapiens (Human), UniProt P01116+P62937, G12V); assay: Ras-Raf disruption/FRET/MOA assay, KRAS G12V; conditions: read-out: KRAS G12V FRET IC50
Description: as §1, §2, §3, §4

KRAS G12S = KRAS G12S (Homo sapiens (Human), UniProt P01116+P62937, G12S); assay: Ras-Raf disruption/FRET/MOA assay, KRAS G12S; conditions: read-out: KRAS G12S FRET IC50
Description: as §1, §2, §3, §4

KRAS G12V, sequence (P01116 other isoform, or with tags, fused parts or gaps G12V): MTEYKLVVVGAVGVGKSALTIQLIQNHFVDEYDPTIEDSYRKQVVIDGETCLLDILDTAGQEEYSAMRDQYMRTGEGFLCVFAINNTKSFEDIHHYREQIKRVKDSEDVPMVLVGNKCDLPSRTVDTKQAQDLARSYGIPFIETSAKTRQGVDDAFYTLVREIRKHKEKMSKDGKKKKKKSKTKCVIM
KRAS G12V, sequence (P62937 whole entry): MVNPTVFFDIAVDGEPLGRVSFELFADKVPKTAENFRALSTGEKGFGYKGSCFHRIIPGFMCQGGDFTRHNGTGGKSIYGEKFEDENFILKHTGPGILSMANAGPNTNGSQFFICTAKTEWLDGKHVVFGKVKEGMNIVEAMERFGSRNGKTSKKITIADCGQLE
KRAS G12C, sequence (P01116-2 other isoform, or with tags, fused parts or gaps G12C): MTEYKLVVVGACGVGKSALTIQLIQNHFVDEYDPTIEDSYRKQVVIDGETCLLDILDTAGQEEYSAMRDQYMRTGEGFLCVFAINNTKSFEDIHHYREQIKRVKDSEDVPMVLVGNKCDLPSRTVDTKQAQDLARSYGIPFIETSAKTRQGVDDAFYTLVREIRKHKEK
KRAS G12C, sequence (P62937 whole entry, the tested form may be a part): as the sequence (P62937 whole entry) above
KRAS G12D, sequence (P01116 other isoform, or with tags, fused parts or gaps G12D): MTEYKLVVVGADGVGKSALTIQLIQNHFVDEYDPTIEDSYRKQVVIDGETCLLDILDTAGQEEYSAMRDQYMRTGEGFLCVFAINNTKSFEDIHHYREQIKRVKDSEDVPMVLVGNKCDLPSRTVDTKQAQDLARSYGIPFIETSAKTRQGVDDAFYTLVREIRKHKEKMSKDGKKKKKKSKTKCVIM
KRAS G12D, sequence (P62937 whole entry): as the sequence (P62937 whole entry) above
KRAS WT, sequence (P01116 other isoform, or with tags, fused parts or gaps): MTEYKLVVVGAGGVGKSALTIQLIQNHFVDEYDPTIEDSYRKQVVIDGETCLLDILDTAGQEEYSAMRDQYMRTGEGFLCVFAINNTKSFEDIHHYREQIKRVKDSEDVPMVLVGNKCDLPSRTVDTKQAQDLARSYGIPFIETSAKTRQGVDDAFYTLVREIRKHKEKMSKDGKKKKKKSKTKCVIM
KRAS WT, sequence (P62937 whole entry): as the sequence (P62937 whole entry) above
NRAS G12C, sequence (P01111 whole entry G12C): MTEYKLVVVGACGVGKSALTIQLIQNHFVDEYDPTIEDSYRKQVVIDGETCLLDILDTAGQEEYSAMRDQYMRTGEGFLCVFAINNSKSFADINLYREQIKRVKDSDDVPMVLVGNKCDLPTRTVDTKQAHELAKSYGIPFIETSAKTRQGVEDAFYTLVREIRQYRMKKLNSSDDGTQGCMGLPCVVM
NRAS G12C, sequence (P62937 whole entry): as the sequence (P62937 whole entry) above
KRAS G13C, sequence (P01116 other isoform, or with tags, fused parts or gaps G13C): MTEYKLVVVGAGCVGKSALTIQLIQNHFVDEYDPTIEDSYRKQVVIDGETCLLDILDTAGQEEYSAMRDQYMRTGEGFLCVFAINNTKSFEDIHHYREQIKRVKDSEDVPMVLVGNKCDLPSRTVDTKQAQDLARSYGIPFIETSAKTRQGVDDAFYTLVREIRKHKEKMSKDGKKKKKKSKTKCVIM
KRAS G13C, sequence (P62937 whole entry): as the sequence (P62937 whole entry) above
KRAS G12S, sequence (P01116 other isoform, or with tags, fused parts or gaps G12S): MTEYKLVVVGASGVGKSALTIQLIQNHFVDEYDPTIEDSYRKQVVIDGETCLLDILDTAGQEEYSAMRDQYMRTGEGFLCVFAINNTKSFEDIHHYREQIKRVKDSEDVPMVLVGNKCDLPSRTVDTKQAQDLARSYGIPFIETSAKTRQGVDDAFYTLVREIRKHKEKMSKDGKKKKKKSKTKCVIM
KRAS G12S, sequence (P62937 whole entry): as the sequence (P62937 whole entry) above
KRAS G13D, sequence (P01116 other isoform, or with tags, fused parts or gaps G13D): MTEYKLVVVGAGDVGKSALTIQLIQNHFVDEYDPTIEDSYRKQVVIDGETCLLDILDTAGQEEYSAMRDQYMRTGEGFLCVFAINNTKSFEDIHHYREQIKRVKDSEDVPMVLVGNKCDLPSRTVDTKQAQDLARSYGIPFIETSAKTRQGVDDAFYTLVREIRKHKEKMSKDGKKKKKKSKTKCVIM
KRAS G13D, sequence (P62937 whole entry): as the sequence (P62937 whole entry) above

Row | SMILES | IC50 (KRAS G12C) [µM] | IC50 (KRAS WT) [µM] | IC50 (KRAS G13D) [µM] | IC50 (NRAS G12C) [µM] | IC50 (KRAS G12D) [µM] | IC50 (KRAS G13C) [µM] | IC50 (KRAS G12V) [µM] | IC50 (KRAS G12S) [µM]
1 | CCn1c(-c2cnccc2COC)c2c3cc(ccc31)-c1cc(O)cc(c1)C[C@H](NC(=O)[C@H](C(C)C)N(C)C(=O)N1CCCN(C(=O)[C@H]3CN3)CC1)C(=O)N1CCC[C@H](N1)C(=O)OCC(C)(C)C2 [Example 44] | 0.01 to 0.1 | 0.01 to 0.1 | 0.1 to 1 | 0.01 to 0.1 | 0.1 to 1 | 0.01 to 0.1 | 0.01 to 0.1 | 0.1 to 1
2 | CCn1c(-c2cccnc2[C@H](C)OC)c2c3cc(ccc31)-c1cccc(c1)C[C@H](NC(=O)[C@H](C(C)C)N1CC[C@@H](CN=C=NCCOC)C1)C(=O)N1CCC[C@H](N1)C(=O)OCC(C)(C)C2 [Example 121] | 0.1 to 1 | 0.1 to 1 | > 10 | 0.1 to 1 | 1 to 10 | 0.1 to 1 | 1 to 10 | 1 to 10
3 | CCn1c(-c2cnccc2COC)c2c3cc(ccc31)-c1cc(O)cc(c1)C[C@H](NC(=O)[C@H](C(C)C)N(C)C(=O)C1CN(C(=O)[C@@H]3CN3)C1)C(=O)N1CCC[C@H](N1)C(=O)OCC(C)(C)C2 [Example 6] | 0.01 to 0.1 | 0.1 to 1 | 1 to 10 | 0.01 to 0.1 | 1 to 10 | 0.1 to 1 | 0.1 to 1 | 0.1 to 1
4 | CCn1c(-c2cnccc2COC)c2c3cc(ccc31)-c1cccc(c1)C[C@H](NC(=O)[C@H](C(C)C)N(C)C(=O)CCN=C=Nc1ccc(N3CCOCC3)cc1)C(=O)N1CCC[C@H](N1)C(=O)OCC(C)(C)C2 [Example 67] | 0.1 to 1 | 1 to 10 | 1 to 10 | 0.1 to 1 | 1 to 10 | 1 to 10 | 1 to 10 | 1 to 10
5 | CCn1c(-c2cnccc2COC)c2c3cc(ccc31)-c1cc(O)cc(c1)C[C@H](NC(=O)[C@H](C(C)C)N(C)C(=O)[C@H]1CCN(C(=O)[C@@H]3CN3)C1)C(=O)N1CCC[C@H](N1)C(=O)OCC(C)(C)C2 [Example 2] | 0.01 to 0.1 | 0.1 to 1 | 0.1 to 1 | 0.01 to 0.1 | 0.1 to 1 | 0.1 to 1 | 0.1 to 1 | 0.1 to 1
6 | CCn1c(-c2cnccc2COC)c2c3cc(ccc31)-c1cc(O)cc(c1)C[C@H](NC(=O)[C@H](C(C)C)N(C)C(=O)CCNC1=NCCO1)C(=O)N1CCC[C@H](N1)C(=O)OCC(C)(C)C2 [Example 120] | 0.1 to 1 | 0.01 to 0.1 | 0.01 to 0.1 | 0.1 to 1 | 0.1 to 1 | 0.01 to 0.1 | 0.1 to 1 | 0.1 to 1
7 | CCn1c(-c2cnccc2COC)c2c3cc(ccc31)-c1cccc(c1)C[C@H](NC(=O)[C@H](C(C)C)N(C)C(=O)CCN=C=Nc1ccccc1COC)C(=O)N1CCC[C@H](N1)C(=O)OCC(C)(C)C2 [Example 63] | 1 to 10 | 1 to 10 | > 10 | 1 to 10 | 1 to 10 | 1 to 10 | 1 to 10 | 1 to 10
8 | CCn1c(-c2cnccc2COC)c2c3cc(ccc31)-c1cccc(c1)C[C@H](NC(=O)[C@H](C(C)C)N(C)C(=O)CCN=C=Nc1ccc(N(C)C)cc1)C(=O)N1CCC[C@H](N1)C(=O)OCC(C)(C)C2 [Example 66] | 0.1 to 1 | 1 to 10 | 1 to 10 | 0.1 to 1 | 1 to 10 | 0.1 to 1 | 1 to 10 | 1 to 10
9 | CCn1c(-c2cnccc2COC)c2c3cc(ccc31)-c1cc(O)cc(c1)C[C@H](NC(=O)[C@H](C(C)C)N(C)C(=O)C1CCN(C(=O)[C@H]3CN3)CC1)C(=O)N1CCC[C@H](N1)C(=O)OCC(C)(C)C2 [Example 3] | 0.01 to 0.1 | 0.1 to 1 | 0.1 to 1 | 0.01 to 0.1 | 1 to 10 | 0.01 to 0.1 | 0.1 to 1 | 0.1 to 1
10 | CCn1c(-c2cnccc2COC)c2c3cc(ccc31)-c1cc(O)cc(c1)C[C@H](NC(=O)[C@@H](CN(C)C(=O)[C@H]1CN1)C(C)C)C(=O)N1CCC[C@H](N1)C(=O)OCC(C)(C)C2 [Example 99] | 1 to 10 | > 10 | > 10 | > 10 | > 10 | > 10 | 1 to 10 | > 10
11 | CCn1c(-c2cnccc2COC)c2c3cc(ccc31)-c1cc(O)cc(c1)C[C@H](NC(=O)[C@@H](CN(C)C(=O)[C@@H]1CN1)C(C)C)C(=O)N1CCC[C@H](N1)C(=O)OCC(C)(C)C2 [Example 60] | 1 to 10 | > 10 | > 10 | > 10 | > 10 | > 10 | 1 to 10 | > 10
12 | CCn1c(-c2cnccc2COC)c2c3cc(ccc31)-c1cc(O)cc(c1)C[C@H](NC(=O)[C@H](C(C)C)N(C)C(=O)C1CN(C(=O)[C@H]3CN3)C1)C(=O)N1CCC[C@H](N1)C(=O)OCC(C)(C)C2 [Example 5] | 0.01 to 0.1 | 0.1 to 1 | 0.1 to 1 | < 0.01 | 1 to 10 | 0.1 to 1 | 0.1 to 1 | 0.1 to 1
13 | CCn1c(-c2cnccc2COC)c2c3cc(ccc31)-c1cc(O)cc(c1)C[C@H](NC(=O)[C@H](C(C)C)N(C)C(=O)CCN(C)C(=O)[C@@H]1CN1)C(=O)N1CCC[C@H](N1)C(=O)OCC(C)(C)C2 [Example 40] | 0.1 to 1 | 0.1 to 1 | 0.1 to 1 | 0.1 to 1 | 0.1 to 1 | 0.1 to 1 | 0.1 to 1 | 0.1 to 1
14 | CCn1c(-c2cnccc2COC)c2c3cc(ccc31)-c1cc(O)cc(c1)C[C@H](NC(=O)[C@H](C(C)C)N(C)C(=O)c1ccc(NC(=O)[C@@H]3CN3)cn1)C(=O)N1CCC[C@H](N1)C(=O)OCC(C)(C)C2 [Example 46] | 0.1 to 1 | 1 to 10 | 1 to 10 | 0.1 to 1 | 1 to 10 | 0.1 to 1 | 1 to 10 | 0.1 to 1
